Results as given in patent US10759831B2, “Peptide compound, production method therefor, and use thereof” (iNtRON Biotechnology, Inc., priority 2014, dated 2020).

Legend:
[1] = system: stomach cancer cell line SNU638; assay: SRB cell viability assay, stomach cancer cell line SNU638; assay type: cell-based; settings: Homo sapiens, SNU-638; SNU638, 72 hours; read-out: Cell growth inhibition concentration (IC50)
Experimental: (§1) Regarding a lung cancer cell line A549 (Korean Cell line Bank), a colon cancer cell line HCT116 (ATCC), a stomach cancer cell line SNU638 (Korean Cell Line Bank), a liver cancer cell line SK-HEP-1 (Korean Cell line Bank), and a breast cancer cell line MDA-MB-231 (Korean Cell line Bank), a sulforhodamine B (SRB) assay which is a method of measuring cell viability was used for measuring apoptosis effects of Asperphenin.
(§2) In detail, 190 μl of a cell suspension at a concentration of 3.5×10^4 cells/ml was inoculated in each well of a 96-well microplate. 0.8 μM, 4 μM, 20 μM, or 100 μM of Asperphenin was added to the cell culture medium, and cultured at a temperature of 37° C. for 72 hours under the condition of 5% CO2. After incubation, 50 μl of 50% (v/v) trichloroacetic acid solution (Sigma Aldrich) was added to each well, and then, incubated at a temperature of 4° C. for 30 minutes, to thereby fix the cells thereto. The fixed cells were washed with water five times, and then, dried in the air.
(§3) Next, 80 μl of a 0.4% (w/v) SRB aqueous solution (Sigma Aldrich) containing 1% (v/v) acetic acid (DUKSAN) was added to each well, incubated at room temperature for 1 hour to stain cells therein, and the stained cells washed with water and dried. The cells were dissolved by adding 200 μl of 10 mM Tris (pH 10.0) (Sigma Aldrich) to each well, and then, the number of living cells was calculated by measuring the absorbance thereof at 515 nm. The concentration of the compound inhibiting cell growth to 50% based on the number of the living cells, i.e., 50% inhibition concentration (IC50) was calculated, and the results are shown in Table 3. Here, as a positive control, etoposide (Sigma Aldrich) was used.

[2] = system: liver cancer cell line SK-HEP-1; assay: SRB cell viability assay, liver cancer cell line SK-HEP-1; assay type: cell-based; settings: Homo sapiens, SK-HEP1; SK-HEP-1, 72 hours; read-out: Cell growth inhibition concentration (IC50)
Experimental: as §1, §2, §3

[3] = system: breast cancer cell line MDA-MB-231; assay: SRB cell viability assay, breast cancer cell line MDA-MB-231; assay type: cell-based; settings: Homo sapiens; MDA-MB-231, 72 hours; read-out: Cell growth inhibition concentration (IC50)
Experimental: as §1, §2, §3

[4] = system: colon cancer cell line RKO; assay: Cell cycle analysis by PI flow cytometry; assay type: cell-based, human
Experimental: The effects of Asperphenin B on the cell cycle of the colon cancer cell line RKO was confirmed by flow cytometry.
RKO cells (ATCC) were diluted in a medium containing 10% (v/v) FBS to become 1×10^5 cells/ml, and then, inoculated into a 60 mm culture dish. The inoculated cells were cultured for about 24 hours at a temperature of 37° C. under the condition of 5% CO2. The cultured cells were washed with phosphate-buffered saline (PBS) once, and the medium was replaced by a fresh medium. Asperphenin B at the final concentration of 0.625 μM, 1.25 μM, 2.5 μM, 5 μM, or 10 μM was added to the cultured cells, and then, the cells were cultured at a temperature of 37° C. under condition of 5% CO2.
After a certain period of time, cells attached to the culture dish and cells not attached to the medium were collected. The collected cells was washed with PBS once, and then, 1 ml of cold 70% (v/v) ethanol. The cells were incubated at a temperature of 4° C. for about 12 hours to fix the cells. After removing 70% (v/v) ethanol, the fixed cells were washed with PBS once. 500 μl of RNase A (Sigma Aldrich) at a concentration of 50 μg/ml as added to the cells, and the cells were incubated at room temperature for about 30 minutes. Propidium iodide (PI) at a final concentration of 50 μg/ml was added to the cells, and then, the cells were incubated at room temperature for about 30 minutes in a condition where reactants were in the shaded state. The cells stained with PI were subjected to analysis of cell cycle by using a BD FACSCalibur flow cytrometer (manufactured by BD Biosciences). Based on the flow cytometry results, cell ratios at the sub-G1, G0/G1, S, and G2/M phases were calculated. Here, as a negative control, cells to which Asperphenin B was not added was used.
When the RKO cells were incubated for 48 hours in the presence of Asperphenin B, cell ratios (%) dependent on the concentration of Asperphenin B are shown in FIG. 3A and Table 5. When the RKO cells were incubated in the presence of Asperphenin B at the concentrations of 2.5 μM and 5 μM, cell ratios (%) dependent on the incubation time are shown in FIGS. 3B and 3C, and Table 6.

[5] = RKO cells, 2.5 μM, 48 hours, Table 6
[6] = RKO cells, 5 μM, 48 hours, Table 6
[7] = RKO cells, 48 hours, 2.5 μM, Table 5
[8] = RKO cells, 48 hours, 5 μM, Table 5

CCCCCCCCC[C@@H](O)CC(=O)N[C@@H](CC(N)=O)C(=O)N[C@@H](CCC(N)=O)C(=O)N[C@H](CC(=O)c1cc(C)cc(O)c1C(=O)c1c(O)cccc1O)CC(C)C [Asperphenin B] gave an IC50 [1] of 11.7 µM, an IC50 [2] of 3 µM and an IC50 [3] of 6 µM. The “Effect on cells in the G2/M phase” value ([4]; 2.5 μM or 5 μM, until 24 hours of treatment) was “cell cycle arrest”, the “Effect after 48 hours of treatment” value ([4]; RKO cells, 2.5 μM or 5 μM, 48 hours) was “cell apoptosis was induced” and the “Cell ratio, G0/G1 phase” value ([4]; RKO cells, 2.5 μM, 6 hours) was 62.16%. The “Cell ratio, G2/M phase” value ([4]; RKO cells, 2.5 μM, 6 hours) was 18.28%, the “Cell ratio, S phase” value ([4]; RKO cells, 2.5 μM, 6 hours) was 13.82% and the “Cell ratio, Sub-G1 phase” value ([4]; RKO cells, 2.5 μM, 6 hours) was 3.77%. For the same compound, the “Cell ratio, G0/G1 phase” value ([4]; RKO cells, 2.5 μM, 12 hours) was 56.50%, the “Cell ratio, G2/M phase” value ([4]; RKO cells, 2.5 μM, 12 hours) was 22.18% and the “Cell ratio, S phase” value ([4]; RKO cells, 2.5 μM, 12 hours) was 15.09%. The “Cell ratio, Sub-G1 phase” value ([4]; RKO cells, 2.5 μM, 12 hours) was 3.25%, the “Cell ratio, G0/G1 phase” value ([4]; RKO cells, 2.5 μM, 24 hours) was 30.73% and the “Cell ratio, G2/M phase” value ([4]; RKO cells, 2.5 μM, 24 hours) was 40.76%. The “Cell ratio, S phase” value ([4]; RKO cells, 2.5 μM, 24 hours) was 17.38%, the “Cell ratio, Sub-G1 phase” value ([4]; RKO cells, 2.5 μM, 24 hours) was 5.03% and the “Cell ratio, G0/G1 phase” value [4, 5] was 17.80%. The “Cell ratio, G2/M phase” value [4, 5] was 39.31%, the “Cell ratio, S phase” value [4, 5] was 6.55% and the “Cell ratio, Sub-G1 phase” value [4, 5] was 33.38%. The “Cell ratio, G0/G1 phase” value ([4]; RKO cells, 5 μM, 6 hours) was 60.66%, the “Cell ratio, G2/M phase” value ([4]; RKO cells, 5 μM, 6 hours) was 20.21% and the “Cell ratio, S phase” value ([4]; RKO cells, 5 μM, 6 hours) was 13.48%. For the same compound, the “Cell ratio, Sub-G1 phase” value ([4]; RKO cells, 5 μM, 6 hours) was 3.19%, the “Cell ratio, G0/G1 phase” value ([4]; RKO cells, 5 μM, 12 hours) was 57.60% and the “Cell ratio, G2/M phase” value ([4]; RKO cells, 5 μM, 12 hours) was 20.93%. The “Cell ratio, S phase” value ([4]; RKO cells, 5 μM, 12 hours) was 14.63%, the “Cell ratio, Sub-G1 phase” value ([4]; RKO cells, 5 μM, 12 hours) was 3.80% and the “Cell ratio, G0/G1 phase” value ([4]; RKO cells, 5 μM, 24 hours) was 28.35%. For the same compound, the “Cell ratio, G2/M phase” value ([4]; RKO cells, 5 μM, 24 hours) was 48.88%, the “Cell ratio, S phase” value ([4]; RKO cells, 5 μM, 24 hours) was 14.08% and the “Cell ratio, Sub-G1 phase” value ([4]; RKO cells, 5 μM, 24 hours) was 4.86%. The “Cell ratio, G0/G1 phase” value [4, 6] was 20.53%, the “Cell ratio, G2/M phase” value [4, 6] was 23.37% and the “Cell ratio, S phase” value [4, 6] was 5.90%. For the same compound, the “Cell ratio, Sub-G1 phase” value [4, 6] was 48.23%, the “Cell ratio, G0/G1 phase” value ([4]; RKO cells, 48 hours, 0.625 μM) was 52.49% and the “Cell ratio, G2/m phase” value ([4]; RKO cells, 48 hours, 0.625 μM) was 29.56%. The “Cell ratio, S phase” value ([4]; RKO cells, 48 hours, 0.625 μM) was 8.11%, the “Cell ratio, Sub-G1 phase” value ([4]; RKO cells, 48 hours, 0.625 μM) was 7.14% and the “Cell ratio, G0/G1 phase” value ([4]; RKO cells, 48 hours, 1.25 μM) was 23.02%. For the same compound, the “Cell ratio, G2/m phase” value ([4]; RKO cells, 48 hours, 1.25 μM) was 43.94%, the “Cell ratio, S phase” value ([4]; RKO cells, 48 hours, 1.25 μM) was 6.39% and the “Cell ratio, Sub-G1 phase” value ([4]; RKO cells, 48 hours, 1.25 μM) was 24.18%. For the same compound, the “Cell ratio, G0/G1 phase” value [4, 7] was 17.99%, the “Cell ratio, G2/m phase” value [4, 7] was 34.58% and the “Cell ratio, S phase” value [4, 7] was 6.63%. The “Cell ratio, Sub-G1 phase” value [4, 7] was 38.60%, the “Cell ratio, G0/G1 phase” value [4, 8] was 17.59% and the “Cell ratio, G2/m phase” value [4, 8] was 15.97%. The “Cell ratio, S phase” value [4, 8] was 5.29%, the “Cell ratio, Sub-G1 phase” value [4, 8] was 59.90% and the “Cell ratio, G0/G1 phase” value ([4]; RKO cells, 48 hours, 10 μM) was 17.07%. For the same compound, the “Cell ratio, G2/m phase” value ([4]; RKO cells, 48 hours, 10 μM) was 8.92%, the “Cell ratio, S phase” value ([4]; RKO cells, 48 hours, 10 μM) was 5.46% and the “Cell ratio, Sub-G1 phase” value ([4]; RKO cells, 48 hours, 10 μM) was 67.82%.
